# Assay results published in patent US20180353568A1 (priority 2015, published 2018).
# “Also recorded” adds a separate entry of the source.
# Key:
# [1] = test system: HIV-luc/Zaire EBOV-GP2014 pseudotype virus; assay type: cell-based, Ebola virus
# [2] = test system: HIV-luc/Zaire EBOV-GP2014 pseudotype virus; assay type: cell-based, Ebola virus; remark: listed apart in the source
# [3] = test system: HIV-luc/Zaire EBOV-GP2014 pseudotype virus; assay type: cell-based, Ebola virus; remark: listed apart in the source
# [4] = test system: HIV-luc/Zaire EBOV-GP2014 pseudotype virus; assay type: cell-based, Ebola virus; remark: listed apart in the source
# [5] = test system: envelope protein GP of Ebola virus (HIV-luc/EBOV-GP pseudotype virus); assay type: cell-based
# [6] = test system: envelope G protein of vesicular stomatitis virus, VSV-G (HIV-luc/VSV-G pseudotype virus); assay type: cell-based
substance,measurement,setting,value
teicoplanin,inhibitory effect on virus in A549 cells,[1],good inhibitory effect
same,inhibitory effect on virus in Hela cells,[2],good inhibitory effect
same,inhibitory effect on virus in HUVECs,[3],good inhibitory effect
same,cytotoxicity in 293T cells,293T cells,non-cytotoxic
same,"toxicity (FIG. 3, CC50 test)",293T cells,low
same,inhibitory effect on virus in THP-1 cells,[4],good inhibitory effect
same,"inhibitory effect on the envelope protein of Ebola virus, EBOV-GP (entry)",[5],can inhibit the entry of Ebola virus; also recorded: good inhibitory effect
same,IC50,[5]; read-out: IC50 of teicoplanin (inhibition of Ebola pseudovirus infecting 293T cells),200 nM
same,"inhibitory effect on the envelope G protein of vesicular stomatitis virus, VSV-G",[6],no inhibitory effect
